Values quoted from earlier work in patent US6103487A, “Method of treating cancer” (Merck & Co., Inc., priority 1998, dated 2000).

What was measured:
[1] = test system: farnesyl-protein transferase; conditions: by inhibiting HMG-CoA reductase
Ras = conditions: inhibits the rate-limiting step in the isoprenoid biosynthetic pathway; positive control

Structure (SMILES)	Indirect inhibition of farnesyl-protein transferase in vivo [1]	block of Ras processing in cells (Ras)
CC[C@H](C)C(=O)O[C@H]1CCC=C2C=C[C@H](C)[C@H](CC[C@@H]3C[C@@H](O)CC(=O)O3)[C@H]21 [compactin]	Indirect inhibition of farnesyl-protein transferase in vivo has been demonstrated	–
CC[C@H](C)C(=O)O[C@H]1C[C@@H](C)C=C2C=C[C@H](C)[C@H](CC[C@@H]3C[C@@H](O)CC(=O)O3)[C@H]21 [lovastatin]	Indirect inhibition of farnesyl-protein transferase in vivo has been demonstrated	blocks Ras processing in cells
